Source: patent publication US8093253B2, “Leukotriene B4 inhibitors” (Hoffmann-La Roche Inc., priority 2008, dated 2012)

Legend:
[1] = tested on: BLT1 and BLT2 receptors (HL-60 cells); test: Ca2+ flux assay for LTB4 antagonist assay (HL-60 FLIPR); type: cell-based, Human; details: Retinoic acid induced HL-60 cells, inhibition of LTB4-induced Ca2+ flux, 30 min preincubation; read-out: LTB4 antagonism (HL-60 FLIPR) IC50
Procedure: Ca^2+ Flux Assay for LTB4 Antagonist Assay
Human leukemia HL-60 cells endogenously expressing BLT1 and BLT2 receptors were cultured in RPMI-1640 medium supplemented with 20% fetal bovine serum, 2 mM glutamine, 100 U/mL penicillin and 100 ug/mL streptomycin.
Seventy two hours prior to experiment cells are counted using ViaCount reagent, centrifuged and resuspended at 2.0×10^5 cells/mL density with the complete growth media containing 1 μM Retinoic Acid (Sigma).
On a day of the experiment loading buffer (Calcium-3 Assay Kit, Molecular Devices) was prepared by dissolving the contents of one vial (Express Kit) into 500 mL Hank's Balanced Salt Solution containing 20 mM HEPES and 5 mM probenecid. Equal volume of the loading buffer was mixed with the replacement buffer (Hank's Balanced Salt Solution containing 20 mM HEPES, 0.05% BSA and 5 mM probenecid). Retinoic Acid induced HL-60 cells were counted using ViaCount reagent, centrifuged and resuspended at 2.0×10^6 cells/mL density with the loading buffer/replacement buffer, dispensed into 384 well black/clear microplates (Falcon)(25 μL/well) and placed in a 37° C./5% CO2 incubator for 1 hour.
During the incubation, test compounds were prepared at 6× the desired concentration in HBSS/20 mM HEPES/0.05% BSA as well as LTB4 (Biomol) was prepared at 2.2× concentration in HBSS/20 mM HEPES/0.5% BSA buffer.
After the incubation, both the cell and compound plates were brought to the FLIPR and 5 μL of the diluted compounds were transferred to the cell plates by the FLIPR. Plates were then incubated for 30 min at room temperature. After the ½ hour incubation, plates were returned to the FLIPR and 25 μL of 2.2×LTB4 was added to the cell plates. During the assay, fluorescence readings were taken simultaneously from all 384 wells of the cell plate every 1.5 seconds. Five readings were taken to establish a stable baseline, then 25 μL (LTB4) of sample was rapidly and simultaneously added to each well of the cell plate. The fluorescence was continuously monitored before, during and after sample addition for a total elapsed time of 100 seconds. Responses (increase in peak fluorescence) in each well following agonist addition was determined. The initial fluorescence reading from each well, prior to ligand stimulation, was used a zero baseline value for the data from that well. The responses are expressed as % inhibition of the neutral control (neural control: wells that received buffer plus DMSO but no test compound).

| IC50 [1] [nM] | melting point [°C] | Compound |
| --- | --- | --- |
| 1.22 | – | CS(=O)(=O)c1cc(OCCCCCCc2cccc(OCCCC(=O)O)c2CCC(=O)O)cc(-c2ccc(O)cc2)c1 [Example 5, 4-{2-(2-Carboxy-ethyl)-3-[6-(4′-hydroxy-5-methanesulfonyl-biphenyl-3-yloxy)-hexyl]-phenoxy}-butyric Acid] |
| 0.38 | – | CS(=O)(=O)c1cc(OCCCCCCc2cccc(OCCCC(=O)O)c2CCC(=O)O)cc(-c2ccc(F)cc2)c1 [Example 8, 4-{2-(2-Carboxy-ethyl)-3-[6-(4′-fluoro-5-methanesulfonyl-biphenyl-3-yloxy)-hexyl]-phenoxy}-butyric Acid] |
| 0.32 | – | Cc1ccc(-c2cc(OCCCCCCc3cccc(OCCCC(=O)O)c3CCC(=O)O)cc(S(C)(=O)=O)c2)cc1F [Example 11, 4-{2-(2-Carboxy-ethyl)-3-[6-(3′-fluoro-5-methanesulfonyl-4′-methyl-biphenyl-3-yloxy)-hexyl]-phenoxy}-butyric Acid] |
| 0.44 | – | CS(=O)(=O)c1cc(OCCCCCCc2cccc(OCCCC(=O)O)c2CCC(=O)O)cc(-c2ccsc2)c1 [Example 12, 4-{2-(2-Carboxy-ethyl)-3-[6-(3-methanesulfonyl-5-thiophen-3-yl-phenoxy)-hexyl]-phenoxy}-butyric Acid] |
| 0.91 | – | CCc1ccc(-c2cc(OCCCCCCc3cccc(OCCCC(=O)O)c3CCC(=O)O)cc(S(C)(=O)=O)c2)cc1 [Example 13, 4-{2-(2-Carboxy-ethyl)-3-[6-(4′-ethyl-5-methanesulfonyl-biphenyl-3-yloxy)-hexyl]-phenoxy}-butyric Acid] |
| 261 | – | CS(=O)(=O)c1cc(OCCCCCCc2cccc(OCCCC(=O)O)c2CCC(=O)O)cc(-c2cscn2)c1 [Example 21, 4-{2-(2-Carboxy-ethyl)-3-[6-(3-methanesulfonyl-5-thiazol-4-yl-phenoxy)-hexyl]-phenoxy}-butyric Acid] |
| 361 | – | CS(=O)(=O)c1cc(OCCCCCCc2cccc(OCCCC(=O)O)c2CCC(=O)O)cc(Oc2ccc(Cl)cc2)c1 [Example 23, 4-(2-(2-Carboxy-ethyl)-3-{6-[3-(4-chloro-phenoxy)-5-methanesulfonyl-phenoxy]-hexyl}-phenoxy)-butyric Acid] |
| 47.1 | – | CS(=O)(=O)c1cc(Nc2ccccc2)cc(OCCCCCCc2cccc(OCCCC(=O)O)c2CCC(=O)O)c1 [Example 26, 4-{2-(2-Carboxy-ethyl)-3-[6-(3-methanesulfonyl-5-phenylamino-phenoxy)-hexyl]-phenoxy}-butyric Acid] |
| 0.9 | – | CS(=O)(=O)c1cc(OCCCCCCc2cccc(OCCCC(=O)O)c2CCC(=O)O)cc(-c2cccc(F)c2)c1 [Example 27, 4-{2-(2-Carboxy-ethyl)-3-[6-(3′-fluoro-5-methanesulfonyl-biphenyl-3-yloxy)-hexyl]-phenoxy}-butyric Acid] |
| 0.38 | – | CS(=O)(=O)c1cc(OCCCCCCc2cccc(OCCCC(=O)O)c2CCC(=O)O)cc(-c2ccccc2)c1 [Example 28, 4-{2-(2-Carboxy-ethyl)-3-[6-(5-methanesulfonyl-biphenyl-3-yloxy)-hexyl]-phenoxy}-butyric Acid] |
| 0.12 | – | COc1ccc(-c2cc(OCCCCCCc3cccc(OCCCC(=O)O)c3CCC(=O)O)cc(S(C)(=O)=O)c2)cc1 [Example 29, 4-{2-(2-Carboxy-ethyl)-3-[6-(5-methanesulfonyl-4′-methoxy-biphenyl-3-yloxy)-hexyl]-phenoxy}-butyric Acid] |
| 0.09 | – | CS(=O)(=O)c1cc(OCCCCCCc2cccc(OCCCC(=O)O)c2CCC(=O)O)cc(-c2ccc3c(c2)OCO3)c1 [Example 40, 4-[3-[6-(3-Benzo[1,3]dioxol-5-yl-5-methanesulfonyl-phenoxy)-hexyl]-2-(2-carboxy-ethyl)-phenoxy]-butyric Acid] |
| 0.47 | – | CS(=O)(=O)c1cc(OCCCCCCc2cccc(OCCCC(=O)O)c2CCC(=O)O)cc(-c2ccc3c(c2)OCCO3)c1 [Example 41, 4-(2-(2-Carboxy-ethyl)-3-{6-[3-(2,3-dihydro-benzo[1,4]dioxin-6-yl)-5-methanesulfonyl-phenoxy]-hexyl}-phenoxy)-butyric Acid] |
| 0.2 | – | CS(=O)(=O)c1cc(OCCCCCCc2cccc(OCCCC(=O)O)c2CCC(=O)O)cc(-c2ccc3scnc3c2)c1 [Example 45, 4-[3-[6-(3-Benzothiazol-5-yl-5-methanesulfonyl-phenoxy)-hexyl]-2-(2-carboxy-ethyl)-phenoxy]-butyric Acid] |
| 0.24 | – | CS(=O)(=O)c1cc(OCCCCCCc2cccc(OCCCC(=O)O)c2CCC(=O)O)cc(-c2ccc3c(c2)OC(F)(F)O3)c1 [Example 46, 4-(2-(2-Carboxy-ethyl)-3-{6-[3-(2,2-difluoro-benzo[1,3]dioxol-5-yl)-5-methanesulfonyl-phenoxy]-hexyl}-phenoxy)-butyric Acid] |
| 0.27 | 134 to 135 | CCS(=O)(=O)c1cc(OCCCCCCc2cccc(OCCCC(=O)O)c2CCC(=O)O)cc(-c2ccc3c(c2)OCO3)c1 [Example 47, 4-[3-[6-(3-Benzo[1,3]dioxol-5-yl-5-ethanesulfonyl-phenoxy)-hexyl]-2-(2-carboxy-ethyl)-phenoxy]-butyric Acid] |
| 2.8 | – | CCS(=O)(=O)c1cc(OCCCCCCc2cccc(OCCCC(=O)O)c2CCC(=O)O)cc(-c2ccc(F)cc2)c1 [Example 51, 4-[2-(2-Carboxy-ethyl)-3-[6-(5-ethanesulfonyl-4′-fluoro-biphenyl-3-yloxy)-hexyl]-phenoxy]-butyric Acid] |
| 1.04 | – | CCS(=O)(=O)c1cc(OCCCCCCc2cccc(OCCCC(=O)O)c2CCC(=O)O)cc(-c2ccsc2)c1 [Example 52, 4-[2-(2-Carboxy-ethyl)-3-[6-(3-ethanesulfonyl-5-thiophen-3-yl-phenoxy)-hexyl]-phenoxy]-butyric Acid] |
| 63.8 | – | CCCS(=O)(=O)c1cc(OCCCCCCc2cccc(OCCCC(=O)O)c2CCC(=O)O)cc(-c2ccc(F)cc2)c1 [Example 55, 4-[2-(2-Carboxy-ethyl)-3-[6-(5-(propane-1-sulfonyl)-4′-fluoro-biphenyl-3-yloxy)-hexyl]-phenoxy]-butyric Acid] |
| 15.3 | – | CC(C)S(=O)(=O)c1cc(OCCCCCCc2cccc(OCCCC(=O)O)c2CCC(=O)O)cc(-c2ccc(F)cc2)c1 [Example 60, 4-[2-(2-Carboxy-ethyl)-3-[6-(5-(propane-2-sulfonyl)-4′-fluoro-biphenyl-3-yloxy)-hexyl]-phenoxy]-butyric Acid] |
